Test results reported in patent US20120040987A1, “DERIVATIVES OF 6-(6-NH-SUBSTITUTED-TRIAZOLOPYRIDAZINE-SULFANYL) BENZOTHIAZOLES AND BENZIMIDAZOLES, PREPARATION THEREOF, USE THEREOF AS DRUGS, AND USE THEREOF AS MET INHIBITORS” (SANOFI, priority 2009, published 2012).

Columns and labels:
[1] = test system: HCT116 cells and MKN45 cells; assay: Test C: measurement of cell proliferation by 14C-thymidine pulse; assay type: cell-based; conditions: 14C-thymidine incorporation, 96 h of treatment; cell line not given
Protocol: The cells are seeded into Cytostar 96-well plates in 180 μl for 4 hours at 37° C. and 5% CO2: HCT116 cells at a rate of 2500 cells per well in DMEM medium+10% foetal calf serum+1% L-glutamine and MKN45 cells at a rate of 7500 cells per well in RPMI medium+10% foetal calf serum+1% L-glutamine. After these 4 hours of incubation, the products are added in 10 μl as a 20-fold concentrated solution according to the dilution method mentioned for the ELISA. The products are tested at 10 concentrations in duplicate from 10 000 nM to 0.3 nM with an increment of 3.
After treatment for 72 h, add 10 μl of ^14C-thymidine at 10 μCi/ml to obtain 0.1 μCi per well. The ^14C-thymidine incorporation is measured on a Micro-Beta machine (Perkin-Elmer) after 24 hours of pulse and 96 h of treatment.
All the steps of the assay are automated on BIOMEK 2000 or TECAN stations.

[2] = target: T1, MET (Homo sapiens, UniProt P08581); assay: Test A: HTRF MET assay in 96-well format; assay type: biochemical; set-up: The His-Tev-MET (956-1390) recombinant DNA in pFastBac (Invitrogen) is transfected into insect cells; His tag (N, cleaved yes); Tev cleavage site (N, cleaved yes); made in house; host or cells: SF21 insect cells (baculovirus, pFastBac); conditions: MET 5 nM, 10 μM ATP
Protocol: The His-Tev-MET (956-1390) recombinant DNA in pFastBac (Invitrogen) is transfected into insect cells, and after several viral amplification steps, the final baculovirus stock is tested for the expression of the protein of interest.
After infection for 72 h at 27° C. with the recombinant virus, the SF21 cell cultures are harvested by centrifugation and the cell pellets are stored at −80° C.
The cell pellets are resuspended in lysis buffer (buffer A [50 mM HEPES, pH 7.5, 250 mM NaCl, 10% glycerol, 1 mM TECP]; +cocktail of protease inhibitors, Roche Diagnostics, without EDTA, ref 1873580), stirred at 4° C. until the mixture is homogeneous and then lyzed mechanically using a “Dounce” type apparatus.
After centrifugation, the lysis supernatant is incubated for 2 h at 4° C. with nickel chelate resin (His-Trap 6 Fast Flow™, GE HealthCare). After washing with 20 volumes of buffer A, the suspension is packed into a column, and the proteins are eluted with a gradient of buffer B ([…]+290 mM imidazole).
The fractions containing the protein of interest for the purpose of electrophoretic analysis (SDS PAGE) are combined, concentrated by ultrafiltration (10 kDa cut-off) and injected onto an exclusion chromatography column (Superdex™ 200, GE HealthCare) equilibrated in buffer A.
After enzymatic cleavage of the histidine tag, the protein is reinjected onto a new IMAC nickel chelate chromatography column (His-Trap 6 Fast Flow™, GE HealthCare) equilibrated in buffer A. The fractions eluted with a gradient of buffer B and containing the protein of interest after electrophoresis (SDS PAGE) are finally combined and conserved at −80° C.
For the production of autophosphorylated protein, the previous fractions are incubated for 1 h at ambient temperature after the addition of 2 mM ATP, 2 mM MgCl2, and 4 mM Na3VO4. After the reaction has been stopped with 5 mM of EDTA, the reaction mixture is injected onto a HiPrep desalifying column (GE HealthCare) preequilibrated in buffer A+4 mM Na3VO4, and the fractions containing the protein of interest (SDS PAGE analysis) are combined and stored at −80° C. The degree of phosphorylation is verified by mass spectrometry (LC-MS) and by peptide mapping.
MET at a final concentration of 5 nM is incubated in a final volume of 50 μl of enzymatic reaction in the presence of the test molecule (for a final concentration range of from 0.17 nM to 10 μM, 3% DMSO final concentration) in 10 mM MOPS buffer, pH 7.4, 1 mM DTT, 0.01% Tween 20. The reaction is initiated with the substrate solution to obtain final concentrations of 1 μg/ml poly-(GAT), 10 μM ATP and 5 mM MgCl2. After incubation for 10 min at ambient temperature, the reaction is stopped with a 30 μl mix so as to obtain a final solution of 50 mM Hepes pH 7.5, 500 mM potassium fluoride, 0.1% BSA and 133 mM EDTA in the presence of 80 ng of streptavidin 61SAXLB Cis-Bio Int. and 18 ng of anti-phosphotyrosine Mab PT66-Europium Cryptate per well. After incubation for 2 hours at ambient temperature, the reading is taken at 2 wavelengths, 620 nm and 665 nm, on a reader for the TRACE/HTRF technique and the % inhibition is calculated from the 665/620 ratios.
Target sequence in this assay (P08581 956-1390): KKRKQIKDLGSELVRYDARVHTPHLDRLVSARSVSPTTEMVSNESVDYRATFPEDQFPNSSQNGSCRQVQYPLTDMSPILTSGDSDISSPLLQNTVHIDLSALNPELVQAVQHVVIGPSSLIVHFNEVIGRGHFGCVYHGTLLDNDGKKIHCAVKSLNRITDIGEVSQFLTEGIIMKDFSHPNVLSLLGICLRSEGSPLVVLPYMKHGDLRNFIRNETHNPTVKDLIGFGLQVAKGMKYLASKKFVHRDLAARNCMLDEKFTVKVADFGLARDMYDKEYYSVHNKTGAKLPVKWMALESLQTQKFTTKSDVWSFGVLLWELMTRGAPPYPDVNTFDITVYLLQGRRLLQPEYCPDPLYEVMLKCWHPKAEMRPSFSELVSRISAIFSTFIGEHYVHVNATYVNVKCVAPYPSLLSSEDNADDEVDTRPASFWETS

[3] = target: T1, MET; assay: Test B: inhibition of the autophosphorylation of MET, ELISA technique (pppY1230, 1234, 1235) on MKN45 cell lysates; assay type: cell-based; set-up: endogenous in cells; host or cells: MKN45 cells; conditions: MKN45 cells, 1 h treatment, phosphoMET ELISA
Protocol: a) Cell lysates: Seed MKN45 cells into 96-well plates (Cell coat BD polylysine) at 20 000 cells/well in 200 μl in RPMI medium+10% FCS+1% L-glutamine. Leave to adhere for 24 hours in an incubator.
The cells are treated the day after seeding with the products at 6 concentrations in duplicate for 1 h. At least 3 control wells are treated with the same final amount of DMSO.
Product dilution: Stock at 10 mM in pure DMSO—range from 10 mM to 30 μM with an increment of 3 in pure DMSO—intermediate 1/50 dilutions in culture medium and then removal of 10 μl added directly to the cells (200 μl): final range of 10 000 to 30 nM.
At the end of the incubation, carefully remove the supernatant and rinse with 200 μl of PBS. Next, place 100 μl of lysis buffer directly in the wells on ice and incubate at 4° C. for 30 minutes. Lysis buffer: 10 mM Tris HCl, pH7.4, 100 mM NaCl, 1 mM EDTA, 1 mM EGTA, 1% Triton X-100, 10% glycerol, 0.1% SDS, 0.5% deoxycholate, 20 mM NaF, 2 mM Na3VO4, 1 mM PMSF and cocktail of antiproteases.
The 100 μl of lysates are transferred into a V-bottomed polypropylene plate and the ELISA is performed immediately, or the plate is frozen at −80° C.
Into each well of the kit plate, add 70 μl of kit dilution buffer+30 μL of cell lysate or 30 μl of lysis buffer for the blanks. Incubate for 2 h with gentle agitation at ambient temperature.
Rinse the wells 4 times with 400 μl of kit washing buffer. Incubate with 100 μl of anti-phospho MET antibody for 1 hour at ambient temperature.
Rinse the wells 4 times with 400 μl of kit washing buffer. Incubate with 100 μl of anti-rabbit HRP antibody for 30 minutes at ambient temperature (except for the wells of chromogen alone).
Rinse the wells 4 times with 400 μl of kit washing buffer. Introduce 100 μL of chromogen and incubate for 30 minutes in the dark at ambient temperature.
Stop the reaction with 100 μl of stop solution. Read without delay at […], 0.1 second on Wallac Victor plate reader.
Target sequence in this assay (P08581 25-1390): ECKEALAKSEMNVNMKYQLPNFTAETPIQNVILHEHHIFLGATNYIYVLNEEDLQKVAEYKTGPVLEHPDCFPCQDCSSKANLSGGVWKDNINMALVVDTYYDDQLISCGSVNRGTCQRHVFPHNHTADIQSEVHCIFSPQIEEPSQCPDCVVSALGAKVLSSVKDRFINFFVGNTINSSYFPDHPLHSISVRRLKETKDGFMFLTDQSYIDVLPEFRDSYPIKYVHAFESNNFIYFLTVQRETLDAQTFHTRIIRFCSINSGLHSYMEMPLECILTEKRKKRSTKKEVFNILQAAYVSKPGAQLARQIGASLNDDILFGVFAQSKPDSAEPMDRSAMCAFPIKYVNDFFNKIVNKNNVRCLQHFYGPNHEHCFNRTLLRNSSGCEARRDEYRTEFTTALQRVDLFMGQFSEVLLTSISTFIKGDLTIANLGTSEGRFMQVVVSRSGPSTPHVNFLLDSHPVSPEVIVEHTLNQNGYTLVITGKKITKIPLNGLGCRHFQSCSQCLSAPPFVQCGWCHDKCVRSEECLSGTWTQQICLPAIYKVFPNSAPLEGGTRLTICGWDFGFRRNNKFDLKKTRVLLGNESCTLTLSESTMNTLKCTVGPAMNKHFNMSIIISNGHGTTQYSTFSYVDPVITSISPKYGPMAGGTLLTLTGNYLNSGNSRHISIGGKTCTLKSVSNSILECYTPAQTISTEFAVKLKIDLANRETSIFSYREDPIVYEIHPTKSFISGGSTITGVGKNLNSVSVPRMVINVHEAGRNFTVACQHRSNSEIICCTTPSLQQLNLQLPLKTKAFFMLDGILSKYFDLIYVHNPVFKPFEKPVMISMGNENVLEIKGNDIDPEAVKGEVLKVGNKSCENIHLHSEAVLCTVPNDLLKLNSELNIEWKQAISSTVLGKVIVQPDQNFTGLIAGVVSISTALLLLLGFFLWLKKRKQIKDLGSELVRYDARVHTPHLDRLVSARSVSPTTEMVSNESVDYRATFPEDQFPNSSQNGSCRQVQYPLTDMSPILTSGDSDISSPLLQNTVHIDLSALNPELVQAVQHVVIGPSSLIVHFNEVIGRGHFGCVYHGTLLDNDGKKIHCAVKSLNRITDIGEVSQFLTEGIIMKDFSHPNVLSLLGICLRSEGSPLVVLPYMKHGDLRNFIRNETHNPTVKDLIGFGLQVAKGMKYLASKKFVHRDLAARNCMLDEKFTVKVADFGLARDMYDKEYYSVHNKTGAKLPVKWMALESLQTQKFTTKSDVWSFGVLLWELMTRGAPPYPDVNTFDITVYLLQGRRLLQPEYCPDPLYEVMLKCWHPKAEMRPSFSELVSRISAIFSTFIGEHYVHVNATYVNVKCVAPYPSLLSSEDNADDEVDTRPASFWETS

CC(=O)Nc1nc2ccc(Sc3nnc4ccc(NC5CCOCC5)nn34)cc2s1 [Example 2, N-(6-{[6-(Tetrahydro-2H-pyran-4-ylamino)[1,2,4]triazolo[4,3-b]pyridazin-3-yl]sulphanyl}-1,3-benzothiazol-2-yl)acetamide]
IC50 [1]: < 1 µM | IC50 [2]: < 0.1 µM | IC50 [3]: < 0.1 µM

O=C(Nc1nc2ccc(Sc3nnc4ccc(NC5CCOCC5)nn34)cc2s1)C1CC1 [Example 3, N-(6-{[6-(Tetrahydro-2H-pyran-4-ylamino)[1,2,4]triazolo[4,3-b]pyridazin-3-yl]sulphanyl}-1,3-benzothiazol-2-yl)cyclopropanecarboxamide]
IC50 [1]: < 1 µM | IC50 [2]: < 0.1 µM | IC50 [3]: < 0.1 µM

Nc1nc2ccc(Sc3nnc4ccc(NC5CCOCC5)nn34)cc2s1 [Example 1, 3-[(2-Amino-1,3-benzothiazol-6-yl)sulphanyl]-N-(tetrahydro-2H-pyran-4-yl)[1,2,4]triazolo[4,3-b]pyridazin-6-amine]
IC50 [1]: < 1 µM | IC50 [2]: < 0.1 µM

CN(C)CC(=O)Nc1nc2ccc(Sc3nnc4ccc(NC5CCOCC5)nn34)cc2s1 [Example 6, N^2,N^2-dimethyl-N-(6-{[6-(tetrahydro-2H-pyran-4-ylamino)[1,2,4]triazolo-[4,3-b]pyridazin-3-yl]sulphanyl}-1,3-benzothiazol-2-yl)glycinamide]
IC50 [1]: < 1 µM | IC50 [2]: < 0.1 µM | IC50 [3]: < 0.1 µM

COCCC(=O)Nc1nc2ccc(Sc3nnc4ccc(NC5CCOCC5)nn34)cc2s1 [Example 5, 3-Methoxy-N-(6-{[6-(tetrahydro-2H-pyran-4-ylamino)[1,2,4]triazolo-[4,3-b]pyridazin-3-yl]sulphanyl}-1,3-benzothiazol-2-yl)propanamide]
IC50 [1]: < 1 µM | IC50 [2]: < 0.1 µM | IC50 [3]: < 0.1 µM

O=C(NCCN1CCOCC1)Nc1nc2ccc(Sc3nnc4ccc(NC5CCOCC5)nn34)cc2s1 [Example 4, 1-[2-(Morpholin-4-yl)ethyl]-3-(6-{[6-(tetrahydro-2H-pyran-4-ylamino)-[1,2,4]triazolo[4,3-b]pyridazin-3-yl]sulphanyl}-1,3-benzothiazol-2-yl)urea]
IC50 [1]: < 1 µM | IC50 [2]: < 0.1 µM | IC50 [3]: < 0.1 µM
